Test results taken from PubChem BioAssay (NCI).
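96-well plates; 48 h exposure; 5 concentrations. Endpoints by linear interpolation between flanking doses. Not reached: highest tested concentration assigned. Definition used: TGI = concentration required for complete inhibition of growth.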

Key:
Test in all cases: inhibition of tumour cell growth, NCI panel, 48 h
[1] = tested on: PC-3 prostate
[2] = tested on: HCC-2998 colon
[3] = tested on: UACC-62 melanoma
[4] = tested on: UO-31 renal
[5] = tested on: RPMI-8226 leukemia
[6] = tested on: KM12 colon
[7] = tested on: U251 CNS
[8] = tested on: OVCAR-8 ovarian
[9] = tested on: T-47D breast
[10] = tested on: CCRF-CEM leukemia
[11] = tested on: OVCAR-4 ovarian
[12] = tested on: HOP-62 NSCLC
[13] = tested on: MDA-MB-435

SMILES	TGI [1] [µM]	TGI [2] [µM]	TGI [3] [µM]	TGI [4] [µM]	TGI [5] [µM]	TGI [6] [µM]	TGI [7] [µM]	TGI [8] [µM]	TGI [9] [µM]	TGI [10] [µM]	TGI [11] [µM]	TGI [12] [µM]	TGI [13] [µM]
COC(=O)/N=[N+](\[O-])C(c1ccc(OC)cc1)C1CCCCC1 (configuration not stated)	22.5	16.1	25	21.5	4.55	16.7	20.1	38.3	40.3	20.6	> 100	16.9	26.4
CSC1=C(c2ccc(Cl)cc2)SC(N2CCCCC2)N1c1ccc([N+](=O)[O-])cc1 (configuration not stated)	63.4	> 100	> 100	> 100	45.2	> 100	56.4	93.7	70.1	> 100	> 100	41.8	> 100
CCCCOC(=O)C(O)Cc1ccoc1 (configuration not stated)	> 100	> 100	> 100	> 100	> 100	> 100	> 100	> 100	> 100	> 100	> 100	> 100	> 100
Cc1cccc2c1NC(=S)[C@@H]1CCCN1C2=O	> 100	> 100	> 100	> 100	> 100	> 100	> 100	> 100	> 100	> 100	> 100	> 100	> 100
CC[C@H]1OC([C@H](O)C/C=C\C#C[Si](C)(C)C)C/C=C\C[C@H]1O[Si](C)(C)C(C)(C)C (some centres not stated)	> 100	> 100	> 100	> 100	> 100	> 100	> 100	> 100	> 100	> 100	> 100	> 100	> 100
CC(=O)Nc1ccc2[nH]c(-c3cccc(F)c3)cc(=O)c2c1	> 100	23	> 31	> 82.2	> 59.8	> 100	16.3	> 31.6	> 100	> 100	> 29.5	> 48.4	3.85
N/C(=N/n1c(=S)[nH]c2ccccc2c1=O)Nn1c(=S)[nH]c2ccccc2c1=O	> 100	> 100	> 100	27.3	57.5	> 100	72.3	> 100	66.3	48.2	> 100	93.1	> 100
C[Si](C)(OCCS(=O)(=O)O)C1S(=O)(=O)OCCOS1(=O)=O	> 100	> 100	> 100	> 100	> 100	> 100	> 100	> 100	> 100	> 100	> 100	> 100	> 100
COc1cccc(NC(=O)CC(=O)N2N=C(C)C(N=Nc3ccc(S(=O)(=O)c4ccc(N=NC5C(=O)N(C(=O)CC(=O)Nc6cccc(OC)c6)N=C5C)cc4)cc3)C2=O)c1 (configuration not stated)	> 100	> 100	> 100	> 100	> 100	> 100	> 100	> 100	> 100	> 100	> 100	> 100	> 100
N#Cc1ccc(OCc2nc3cc(C(F)(F)F)ccc3nc2-c2ccccc2)cc1	> 100	> 100	> 100	> 100	> 100	> 100	> 100	> 100	> 100	> 100	> 100	> 100	> 100
CSc1ccc(/C=C2\N=C(c3ccccc3)N(c3nc4ccc(Sc5ccccc5)cc4[nH]3)C2=O)cc1	> 87.9	38.2	39.1	68.5	57.2	52	41.3	> 87.4	60.6	86.8	> 100	65.9	16.1
O=C(N/N=C\c1ccc2ccccc2c1)Nc1ccc([N+](=O)[O-])cc1	> 73	> 63.3	> 74.8	> 59.3	> 100	> 100	> 100	> 66.1	> 59	> 100	> 70.2	68.1	> 100
Cc1ccc(Nc2cc(=O)[nH]c(=S)[nH]2)cc1	> 100	> 100	> 100	> 100	> 100	> 100	> 100	> 100	> 100	> 100	> 100	> 100	> 100
CC[C@@H](/C=C\CCC1(C[C@H](O)CCC=C(C)C)OCCO1)O[Si](C(C)C)(C(C)C)C(C)C	> 100	31.9	64.5	34.3	42.7	> 100	31.1	38	42.6	> 100	> 100	> 100	> 100
CCOC(=O)CCC(NC(=O)c1ccc(N2CCN(c3c(C)nc(N)nc3N)CC2)cc1)C(=O)OCC (configuration not stated)	> 100	> 100	> 100	> 100	6.94	> 100	> 100	> 100	> 100	4.9	> 100	> 100	> 48.1
C=CC[C@H]1[C@H](O[Si](C)(C)C(C)(C)C)C=CC(=O)[C@@H]1CC(=O)N(Cc1ccccc1)Cc1ccccc1	> 100	73.6	> 100	41.2	> 100	> 100	> 100	> 100	44.2	> 100	> 100	> 100	> 100
Nc1nc(Cl)cc(Nc2cc(Cl)cc(Cl)c2)n1	41.5	32.8	33.5	36.5	66.3	37.7	38.4	28.3	98.9	51.7	46.6	55.1	37.1

SMILES	TGI [1] [µM]	TGI [2] [µM]	TGI [3] [µM]	TGI [4] [µM]	TGI [5] [µM]	TGI [6] [µM]	TGI [7] [µM]	TGI [8] [µM]	TGI [9] [µM]	TGI [10] [µM]	TGI [11] [µM]	TGI [12] [µM]	TGI [13] [µM]
CN(C)c1ccc(/C=C/C=C(/C#N)c2ccccc2)cc1	> 100	> 85.3	> 100	> 100	> 95.3	34.1	55.5	> 91.9	> 100	> 77.1	> 65.8	> 97	6.19
CCC(=O)O[C@H]1CC[C@H]2[C@@H]3CCC4=C/C(=N/NC(=O)c5cccc6c(=O)c7ccccc7[nH]c56)CC[C@]4(C)[C@H]3CC[C@]12C	> 25	> 25	> 25	> 25	> 25	> 25	> 25	> 25	> 25	> 25	> 25	> 25	> 25
O=C1CCCCc2cccc(O)c21	> 100	> 100	> 100	> 100	> 100	> 100	> 100	> 100	> 100	> 100	> 100	> 100	> 100
O=[N+]([O-])c1cccnc1NCC1(CO)CC(Cc2ccccc2)C1 (configuration not stated)	> 100	> 100	> 100	> 100	> 100	> 100	> 100	> 100	> 100	> 100	> 100	> 100	> 100
O[C@@H]1C[C@@H]2N[C@@](O)(C[C@@H]2O)[C@H]1O	> 100	> 100	> 100	> 100	> 100	> 100	> 100	> 100	> 100	> 100	> 100	> 100	> 100
Brc1ccc2[nH]cc(-c3nc(-c4c[nH]c5ccccc45)cs3)c2c1	9.55	4.17	6.95	13.9	> 20.7	5.1	8.38	20.9	31.7	> 26.2	23.1	21.7	13.3
CN(C)Cc1cc(N=Nc2ccccc2)cc(CN(C)C)c1O	> 100	> 100	> 100	> 100	> 100	> 100	> 100	> 100	> 100	94.3	> 100	> 100	> 100
Cc1ccc(N=C2C(=O)C3=C(OC(C)(C)CC3)c3ccccc32)cc1	3.52	3.36	2.88	1.96	0.933	4.01	1.91	–	1.37	10.1	2.18	1.76	0.346
Cn1c(-c2cccs2)cc(-c2cccs2)c1-c1ccsc1	> 100	> 100	> 100	> 100	> 100	> 100	> 100	> 100	> 100	> 100	> 100	> 100	> 100
Cc1cc2c(c(C=NCc3ccccc3)c1)OC1(C=C2)Oc2ccccc2C(=O)N1C (configuration not stated)	75.3	57.4	48.2	40.9	50.4	64.5	80.3	35.6	45.9	36.3	69.9	> 100	78.4
O=[N+]([O-])c1ccc2nc(/C=C(\O)c3ccc(F)cc3)c(/C=C(\O)c3ccc(F)cc3)nc2c1	> 100	> 100	> 100	> 100	> 100	> 100	70.5	> 100	> 100	26.4	> 100	31.7	> 100
COCCOCCOC1=C(Cl)C(=O)c2c(O)ccc(O)c2C1=O	17.5	34	7.85	4.83	3.07	31.9	17.4	5.99	6.64	45.1	4.36	7.3	3.83
COC(=O)/C=c1/c2ccccc2n2nc3ccccc3c12	> 100	> 100	> 100	> 100	> 100	> 100	> 100	> 100	> 100	> 100	> 100	> 100	> 100
Cc1nnc2n1-c1ccccc1C(=S)N1CSCC21 (configuration not stated)	> 100	> 100	> 100	> 100	> 100	> 100	> 100	> 100	> 100	> 100	> 100	> 100	> 100
COc1ccc2c(c1)c1c(n2CCN2CCCCC2)-c2ccccc2CC1	30.3	20.7	–	26.1	56.1	27.3	30.5	29	35.6	47.4	42	34.7	38.3
COc1ccccc1N1CCN(Cn2c(=O)oc3cccnc32)CC1	> 100	> 100	–	> 100	> 100	–	> 100	> 100	> 100	> 100	> 100	> 100	> 100
C#C[C@]1(O)CC[C@H]2[C@@H]3CCc4cc(OC(=O)c5cccc6cc7ccccc7nc56)ccc4[C@H]3CC[C@@]21C	> 100	> 100	80.4	–	> 100	50.6	> 100	> 100	34	> 100	> 100	> 100	> 100
